Source: patent US20170002041A1, “NOVEL ULTRASHORT HYDROPHOBIC PEPTIDES THAT SELF-ASSEMBLE INTO NANOFIBROUS HYDROGELS AND THEIR USES” (AGENCY FOR SCIENCE, TECHNOLOGY AND RESEARCH, priority 2013, published 2017)
Values belong to the substance of their own block, whether it stands above or below them.

Columns and labels:
Format in all cases: physicochemical
[1] = Hydrogel formation / minimum gelation concentration
Excerpt: To prepare the peptide hydrogels, the lyophilized peptide powders were first dissolved in milliQ water and mixed by vortexing for 30 seconds to obtain a homogenous solution. The gelation occurred between minutes to overnight, depending on the peptide concentration. Gelation can be facilitated by sonication or heating.

[2] = Formation of aggregates and fibrous structures
[3] = Hydrogel rigidity, storage modulus (G′)

hydrogel formation ([1]; at 5 mg/mL): hydrogel
Substance: Ac-ILVAG

Substance: Ac-LD6 (L)
concentration at which formation of aggregates is observed [2]: 100 µg/mL | concentration at which peptide monomers align to form fibrous structures [2]: 1000 µg/mL

storage modulus (G′) ([3]; 20 mg/mL hydrogel in normal saline (NaCl)): 10 kPa | storage modulus (G′) ([3]; 20 mg/mL hydrogel in phosphate buffered saline (PBS)): 40 kPa | storage modulus (G′) ([3]; 20 mg/mL hydrogel in water): 1 kPa | storage modulus (G′) ([3]; 20 mg/mL hydrogel, addition of sodium hydroxide (NaOH)): 80 kPa | minimum gelation concentration (forms hydrogels at) ([1]; in 10 mM NaOH): 10 mg/mL | minimum gelation concentration (forms hydrogels at) ([1]; in PBS): 7.5 mg/mL | minimum gelation concentration (forms hydrogels at) ([1]; in saline): 12 mg/mL | minimum gelation concentration (forms hydrogels at) ([1]; in water): 20 mg/mL
Substance: Ac-LIVAGK-NH2
